The structures appear in SMILES notation. Converted amounts (≈) assume the structure as drawn.

Results on one molecule are retold here after publication PMC12196264, “Design and Synthesis of Pyridine-Based Pyrrolo[2,3-d]pyrimidine Analogs as CSF1R Inhibitors: Molecular Hybridization and Scaffold Hopping Approach” (Pharmaceuticals, 2025).

One data set is described as follows: Kinetic solubility. The data set is classed as physicochemical. As to conditions: aqueous buffer, kinetic from dmso stock; spectrophotometric, pH 7.4 in HEPES buffer. Here is the method: (§1) The aqueous solubility of the compounds and metabolic stability under oxidative conditions was performed as described previously.
Data set [1] deals with Ba/F3 cells engineered to be dependent on CSF1R. The data set can be described thus: Cell viability assay with Ba/F3-hCSF1R cells. The class given is cell-based. Here is the method:
Given the promising enzymatic activity of the synthesized derivatives, cellular assays were performed using Ba/F3 cells engineered to depend on constitutively active CSF1R. […] We have also previously observed a low correlation between enzymatic and cellular activities, which may arise from the enzymatic protein construct not accurately mimicking the active conformation of CSF1R in a cellular context.
Performed as reported previously.

In a further data set the target is cKIT (Homo sapiens, UniProt P10721). The data set can be described thus: KIT-WT LanthaScreen binding assay (Kd). Particulars: single eight-point titrations, TR-FRET LanthaScreen Binding Assay; R^2 of fit in parentheses; read-out: Enzymatic Assay KIT (Kd). The protocol: The TR-FRET-based LanthaScreen Binding Assay was performed to determine Kd values of synthesized derivatives against cKIT.
Subsequently, 8 µL of kinase anti-GST antibody mixture was added, followed by incubation at 4 °C for 30 min in a pre-cooled, humidified box to minimize edge effects. The reaction was initiated by adding 5 µL of tracer working solution and mixed on a Bioshake 5000 microplate shaker (Q Instruments, Jena, Germany). […] Kd values were calculated from sigmoidal dose-response curves using Scigilian Analyze software version 5.8.5.15 (Scigilian, Montreal, QC, Canada).
For orientation: TR-FRET usually uses a lanthanide donor and a delayed reading to cut background.

Data set [2] is described as follows: Microsomal stability, mouse liver microsomes. The data set is classed as in vitro ADME. Particulars: mouse liver microsome. Here is the method: as §1
In general terms: Microsomes from liver hold many membrane-bound enzymes, among them those of drug oxidation.

Another data set deals with NEK1 (Homo sapiens, UniProt Q96PY6). The data set can be described thus: Kinase panel. The class given is biochemical. Here is the method:
(§2) Ta b l e S 1. Inhibition (%) by compound 14c towards di7erent kinases. Values are average of two
(§3) measurements at 1000 nM test concentration. The ATP concentration was equal to KM.
(§4) Kinase ATP conc. % inhibition

The next data set deals with FYN (Homo sapiens, UniProt P06241). The data set can be described thus: Kinase panel. The data set is classed as biochemical. The protocol: as §2, §3, §4
The target in a further data set is SRC (Homo sapiens, UniProt P12931). The data set can be described thus: Kinase panel. The class given is biochemical. Here is the method: as §2, §3, §4
The target in a further data set is BTK (Homo sapiens, UniProt Q06187). The data set can be described thus: Kinase panel. The class given is biochemical. The protocol: as §2, §3, §4
For another data set, the target named is FLT3 (Homo sapiens, UniProt P36888). The data set can be described thus: Kinase panel. The data set is classed as biochemical. Here is the method:
as §2, §3, §4

For a further data set, the target named is ITK (Homo sapiens, UniProt Q08881). The data set can be described thus: Kinase panel. The class given is biochemical. Here is the method:
as §2, §3, §4

The target of the next data set is ALK (Homo sapiens, UniProt Q9UM73). The data set can be described thus: Kinase panel. The class given is biochemical. Here is the method:
as §2, §3, §4

The next data set concerns the target JAK2 (Homo sapiens, UniProt O60674). The data set can be described thus: Kinase panel. The data set is classed as biochemical. The protocol:
as §2, §3, §4

The target of a further data set is Aurora B (Homo sapiens, UniProt Q96GD4). The data set can be described thus: Kinase panel. The class given is biochemical. The protocol:
as §2, §3, §4

In a further data set the target is LYN B (Homo sapiens, UniProt P07948). The data set can be described thus: Kinase panel. The class given is biochemical. The protocol: as §2, §3, §4
A further data set has as its target ERBB4 (Homo sapiens, UniProt Q15303). The data set can be described thus: Kinase panel. The class given is biochemical. Here is the method: as §2, §3, §4
In the next data set the target is CDK1 (Homo sapiens, UniProt P06493). The data set can be described thus: Kinase panel. The class given is biochemical. The protocol:
as §2, §3, §4

Another data set has as its target YES1 (Homo sapiens, UniProt P07947). The data set can be described thus: Kinase panel. The class given is biochemical. The protocol: as §2, §3, §4
The next data set addresses KIT (Homo sapiens, UniProt P10721). The data set can be described thus: Kinase panel. The class given is biochemical. The protocol: as §2, §3, §4
For another data set, the target named is TEK (Homo sapiens, UniProt Q02763). The data set can be described thus: Kinase panel. The class given is biochemical. Here is the method:
as §2, §3, §4

A further data set deals with ERBB2 (Homo sapiens, UniProt P04626). The data set can be described thus: Kinase panel. The data set is classed as biochemical. Here is the method:
as §2, §3, §4

The next data set deals with AKT1 (Homo sapiens, UniProt P31749). The data set can be described thus: Kinase panel. The class given is biochemical. Here is the method: as §2, §3, §4
In a further data set the test system is panel of 50 kinases. The data set can be described thus: Kinase panel selectivity. Particulars: 1 μM. The data set is classed as biochemical. The protocol: To further evaluate potential off-target activity, compound 14c was screened against a panel of 50 kinases at a concentration of 1 μM. […] Inhibitor selectivity can be quantified using the selectivity score (S-score), which assumes that low inhibitory activity is clinically irrelevant. The S-score is calculated by dividing the number of kinases inhibited above a defined threshold by the total number of kinases tested. […] Further details on the selectivity data can be found in SI (Table S1). […]
as §2, §3, §4

KIT, sequence (P10721 26-976, species assumed): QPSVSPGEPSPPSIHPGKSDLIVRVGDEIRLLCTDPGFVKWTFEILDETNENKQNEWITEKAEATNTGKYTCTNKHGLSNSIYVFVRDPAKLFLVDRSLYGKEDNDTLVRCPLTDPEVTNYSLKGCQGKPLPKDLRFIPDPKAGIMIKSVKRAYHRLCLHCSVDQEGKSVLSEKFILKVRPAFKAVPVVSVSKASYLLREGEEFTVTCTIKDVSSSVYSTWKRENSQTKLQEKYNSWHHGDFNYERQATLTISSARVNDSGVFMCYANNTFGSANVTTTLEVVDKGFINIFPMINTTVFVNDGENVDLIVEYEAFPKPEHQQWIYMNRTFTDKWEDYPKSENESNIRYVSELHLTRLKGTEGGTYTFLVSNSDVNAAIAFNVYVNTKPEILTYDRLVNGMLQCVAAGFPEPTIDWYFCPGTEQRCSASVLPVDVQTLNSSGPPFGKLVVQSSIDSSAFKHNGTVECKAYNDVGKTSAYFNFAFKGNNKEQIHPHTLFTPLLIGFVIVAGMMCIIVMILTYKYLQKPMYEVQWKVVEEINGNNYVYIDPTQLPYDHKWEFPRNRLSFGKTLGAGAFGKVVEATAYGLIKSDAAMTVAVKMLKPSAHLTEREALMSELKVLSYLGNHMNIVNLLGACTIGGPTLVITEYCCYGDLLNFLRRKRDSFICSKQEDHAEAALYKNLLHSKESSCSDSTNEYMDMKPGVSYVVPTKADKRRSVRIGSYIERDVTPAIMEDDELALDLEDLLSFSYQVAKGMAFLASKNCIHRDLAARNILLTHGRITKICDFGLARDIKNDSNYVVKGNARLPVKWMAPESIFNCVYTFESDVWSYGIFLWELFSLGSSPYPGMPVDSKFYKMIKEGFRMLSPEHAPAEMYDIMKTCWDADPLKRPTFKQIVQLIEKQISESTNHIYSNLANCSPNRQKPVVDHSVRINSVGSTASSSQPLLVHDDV
cKIT, sequence (P10721 26-976): as the sequence (P10721 26-976, species assumed) above
LYN B, sequence (P07948 1-491 isoform P07948-2, species assumed): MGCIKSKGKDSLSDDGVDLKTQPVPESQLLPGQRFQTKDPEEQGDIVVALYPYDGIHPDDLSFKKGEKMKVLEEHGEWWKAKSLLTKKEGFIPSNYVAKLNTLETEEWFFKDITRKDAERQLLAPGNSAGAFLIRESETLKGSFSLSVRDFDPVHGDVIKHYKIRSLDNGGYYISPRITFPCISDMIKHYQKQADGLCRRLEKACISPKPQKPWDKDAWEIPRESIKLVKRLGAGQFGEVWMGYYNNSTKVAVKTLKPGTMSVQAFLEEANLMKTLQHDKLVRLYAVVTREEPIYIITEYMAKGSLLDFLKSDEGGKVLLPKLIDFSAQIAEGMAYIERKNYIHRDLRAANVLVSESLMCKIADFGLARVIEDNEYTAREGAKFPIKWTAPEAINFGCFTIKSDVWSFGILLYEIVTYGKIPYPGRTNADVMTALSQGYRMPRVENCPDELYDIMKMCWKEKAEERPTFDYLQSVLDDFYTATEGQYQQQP
TEK, sequence (Q02763 23-1124, species assumed): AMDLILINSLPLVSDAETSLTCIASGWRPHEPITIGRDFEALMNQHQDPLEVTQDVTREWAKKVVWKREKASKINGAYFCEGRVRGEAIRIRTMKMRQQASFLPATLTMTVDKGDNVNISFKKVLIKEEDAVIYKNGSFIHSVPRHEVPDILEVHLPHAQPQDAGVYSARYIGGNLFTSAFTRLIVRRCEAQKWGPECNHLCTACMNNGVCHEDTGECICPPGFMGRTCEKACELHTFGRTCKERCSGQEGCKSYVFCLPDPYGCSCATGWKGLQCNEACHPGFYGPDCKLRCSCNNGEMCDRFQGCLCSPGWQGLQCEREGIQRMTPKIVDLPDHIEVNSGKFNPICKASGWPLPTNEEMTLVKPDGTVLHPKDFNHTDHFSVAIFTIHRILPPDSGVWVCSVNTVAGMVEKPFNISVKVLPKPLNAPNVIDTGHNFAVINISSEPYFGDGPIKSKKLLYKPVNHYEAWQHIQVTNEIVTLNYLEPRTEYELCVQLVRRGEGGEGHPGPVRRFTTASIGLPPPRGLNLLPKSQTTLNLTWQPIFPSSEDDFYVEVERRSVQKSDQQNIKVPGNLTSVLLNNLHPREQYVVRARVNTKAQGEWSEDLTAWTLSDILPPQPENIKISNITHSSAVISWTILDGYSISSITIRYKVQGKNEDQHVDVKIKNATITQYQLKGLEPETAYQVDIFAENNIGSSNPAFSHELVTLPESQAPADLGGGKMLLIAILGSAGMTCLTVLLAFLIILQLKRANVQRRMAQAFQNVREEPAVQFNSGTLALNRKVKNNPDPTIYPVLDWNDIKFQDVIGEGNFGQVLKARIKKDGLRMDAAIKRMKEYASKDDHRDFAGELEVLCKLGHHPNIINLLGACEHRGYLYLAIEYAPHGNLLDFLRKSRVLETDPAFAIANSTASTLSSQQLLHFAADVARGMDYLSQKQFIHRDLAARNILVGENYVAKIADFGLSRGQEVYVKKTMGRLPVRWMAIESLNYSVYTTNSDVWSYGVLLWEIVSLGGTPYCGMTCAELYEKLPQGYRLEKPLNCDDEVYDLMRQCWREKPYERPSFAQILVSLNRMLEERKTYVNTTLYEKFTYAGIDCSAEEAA
BTK, sequence (Q06187 whole entry, species assumed): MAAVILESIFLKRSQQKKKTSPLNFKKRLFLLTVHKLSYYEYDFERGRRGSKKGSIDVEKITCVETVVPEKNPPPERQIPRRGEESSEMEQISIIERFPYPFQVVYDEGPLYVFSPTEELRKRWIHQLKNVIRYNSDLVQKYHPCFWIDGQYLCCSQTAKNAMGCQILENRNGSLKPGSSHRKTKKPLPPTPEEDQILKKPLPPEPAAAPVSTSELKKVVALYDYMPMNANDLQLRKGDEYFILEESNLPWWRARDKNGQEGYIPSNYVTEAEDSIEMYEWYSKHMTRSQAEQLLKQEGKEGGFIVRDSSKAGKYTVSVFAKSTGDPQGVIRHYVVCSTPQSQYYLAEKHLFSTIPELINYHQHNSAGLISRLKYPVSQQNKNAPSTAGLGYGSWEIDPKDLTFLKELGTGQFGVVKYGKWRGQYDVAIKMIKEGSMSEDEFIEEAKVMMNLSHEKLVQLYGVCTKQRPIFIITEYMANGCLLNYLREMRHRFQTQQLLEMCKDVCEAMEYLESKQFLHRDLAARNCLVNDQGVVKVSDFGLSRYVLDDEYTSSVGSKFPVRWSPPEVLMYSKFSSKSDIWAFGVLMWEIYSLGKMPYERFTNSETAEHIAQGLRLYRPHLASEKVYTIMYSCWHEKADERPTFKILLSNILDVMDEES
ERBB4, sequence (Q15303 26-1308, species assumed): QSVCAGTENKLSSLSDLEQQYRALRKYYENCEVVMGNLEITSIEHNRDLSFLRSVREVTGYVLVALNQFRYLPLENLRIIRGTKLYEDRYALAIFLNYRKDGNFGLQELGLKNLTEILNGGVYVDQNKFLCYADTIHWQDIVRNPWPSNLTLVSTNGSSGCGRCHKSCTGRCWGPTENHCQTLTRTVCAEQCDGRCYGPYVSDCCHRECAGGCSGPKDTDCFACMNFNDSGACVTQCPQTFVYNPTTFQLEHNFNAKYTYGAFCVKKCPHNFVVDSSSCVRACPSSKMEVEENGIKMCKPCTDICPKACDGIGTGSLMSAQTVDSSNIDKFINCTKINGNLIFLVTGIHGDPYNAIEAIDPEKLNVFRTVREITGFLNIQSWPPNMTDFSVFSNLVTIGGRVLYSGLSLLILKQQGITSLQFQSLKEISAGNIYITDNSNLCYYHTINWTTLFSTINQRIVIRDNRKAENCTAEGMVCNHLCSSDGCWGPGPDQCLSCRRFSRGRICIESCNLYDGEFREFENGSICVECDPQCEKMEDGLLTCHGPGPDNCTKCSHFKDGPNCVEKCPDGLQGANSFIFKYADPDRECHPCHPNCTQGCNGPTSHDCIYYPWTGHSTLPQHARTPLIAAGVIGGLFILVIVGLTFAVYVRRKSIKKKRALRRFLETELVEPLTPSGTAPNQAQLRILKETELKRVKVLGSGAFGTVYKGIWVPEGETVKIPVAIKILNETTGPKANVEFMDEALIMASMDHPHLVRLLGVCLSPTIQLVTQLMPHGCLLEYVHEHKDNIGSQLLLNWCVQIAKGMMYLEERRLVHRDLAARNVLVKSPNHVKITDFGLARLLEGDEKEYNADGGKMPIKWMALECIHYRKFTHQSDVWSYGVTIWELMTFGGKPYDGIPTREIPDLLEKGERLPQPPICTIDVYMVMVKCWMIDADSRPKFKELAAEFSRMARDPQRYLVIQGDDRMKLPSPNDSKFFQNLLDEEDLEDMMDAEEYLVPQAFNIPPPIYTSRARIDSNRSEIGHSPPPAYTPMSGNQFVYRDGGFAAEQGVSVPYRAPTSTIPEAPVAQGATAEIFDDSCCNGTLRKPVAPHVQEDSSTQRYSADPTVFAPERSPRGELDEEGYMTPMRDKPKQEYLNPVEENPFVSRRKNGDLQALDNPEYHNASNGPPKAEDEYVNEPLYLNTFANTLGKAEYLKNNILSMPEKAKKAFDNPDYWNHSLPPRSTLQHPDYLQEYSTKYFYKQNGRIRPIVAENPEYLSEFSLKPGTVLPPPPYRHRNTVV
YES1, sequence (P07947 whole entry, species assumed): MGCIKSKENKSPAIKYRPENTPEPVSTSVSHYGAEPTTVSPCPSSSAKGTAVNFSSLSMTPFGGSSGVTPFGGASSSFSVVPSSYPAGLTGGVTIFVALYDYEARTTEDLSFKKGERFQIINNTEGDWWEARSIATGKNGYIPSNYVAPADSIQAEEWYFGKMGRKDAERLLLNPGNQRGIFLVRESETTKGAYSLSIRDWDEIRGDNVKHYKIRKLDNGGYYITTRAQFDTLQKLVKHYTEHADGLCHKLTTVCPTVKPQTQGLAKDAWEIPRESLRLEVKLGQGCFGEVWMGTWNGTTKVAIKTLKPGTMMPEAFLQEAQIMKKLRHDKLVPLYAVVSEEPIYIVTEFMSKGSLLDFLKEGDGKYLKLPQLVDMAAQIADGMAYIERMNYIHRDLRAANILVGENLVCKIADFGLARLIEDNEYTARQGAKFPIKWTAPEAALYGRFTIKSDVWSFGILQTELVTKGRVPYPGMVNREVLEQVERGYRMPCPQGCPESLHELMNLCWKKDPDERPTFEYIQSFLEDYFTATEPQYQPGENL

By kinetic solubility is commonly meant the concentration staying in solution when a stock, usually in DMSO, is diluted into the medium. The Kd is the constant that tells how readily two partners part at equilibrium. Usually inhibition stands for the share of the control response that was lost under treatment. Read a high inhibition as strong suppression. Molecule `Cc1cccc(CN(C)c2ncnc3[nH]c(-c4ccc(NCc5ccc(C(F)(F)F)nc5)nc4)cc23)c1` [Compound 14c, N-Methyl-N-(3-methylbenzyl)-6-(6-(((6-(trifluoromethyl)pyridin-3-yl)methyl)amino)pyridin-3-yl)-7H-pyrrolo[2,3-d]pyrimidin-4-amine] returned a kinetic solubility in “Kinetic solubility” of 0.7 µM (≈ 0.352 µg/mL). The “Cellular activity in Ba/F3 CSF1R cells (in words)” value in data set [1] (Ba/F3 cells dependent on constitutively active CSF1R) was “completely inactive in cells”. Further, the IC50 in [1] (Mus musculus, BaF3, Ba/F3 cells dependent on CSF1R, with standard deviation, read-out: Cellular Assay IC50 (μM), Ba/F3 CSF1R) is above 10 µM. Also, the dissociation constant Kd at cKIT is above 1 µM. Moreover, in [2], the “MLM in vitro intrinsic clearing” value amounted to 60.5 µL/min/mg. In addition, the inhibition at 1 µM against NEK1 turned out to be 16%; against FYN, 16%; at SRC, 43%; against BTK, 13%; on FLT3 it was 26%; against ITK, 8%. The inhibition at 1 µM at ALK was 11%; against JAK2, 4%; against Aurora B, 34%; against LYN B it was 26%; against ERBB4, 2%; against CDK1 it was 12%. In addition, the inhibition at 1 µM against YES1 amounted to 65%; against KIT it was 18%; at TEK it was 8%; at ERBB2, 9%; at AKT1, 2%. For the same molecule, the “Selectivity towards CSF1R in kinase panel (in words)” value in the data set on panel of 50 kinases is “high selectivity”.
